Molecular target: human IDO1 (Homo sapiens, UniProt P14902)
Assay: Assessment of human IDO-1 inhibitory activity in HEK cells (human IDO1/HEK293 cells, kynurenine read-out with Ehrlich reagent, absorbance 490 nm)
Format: cell-based
Parameters: expressed in transfected cells
Details: HEK Human IDO-1 cellular assay
Summary of the method: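 Kynurenine output from stably IDO1-transfected HEK293 cells (10,000/well, phenol red-free RPMI, 10% FBS) after 20 h compound exposure at 37 °C. The reaction was stopped with 0.2% TCA and heated 30 min at 50 °C, then the supernatant was mixed with Ehrlich reagent and read at 490 nm. IC50 was set against DMSO and a 500 nM reference standard as 0 and 100% inhibition.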

human IDO1, sequence (P14902 whole entry): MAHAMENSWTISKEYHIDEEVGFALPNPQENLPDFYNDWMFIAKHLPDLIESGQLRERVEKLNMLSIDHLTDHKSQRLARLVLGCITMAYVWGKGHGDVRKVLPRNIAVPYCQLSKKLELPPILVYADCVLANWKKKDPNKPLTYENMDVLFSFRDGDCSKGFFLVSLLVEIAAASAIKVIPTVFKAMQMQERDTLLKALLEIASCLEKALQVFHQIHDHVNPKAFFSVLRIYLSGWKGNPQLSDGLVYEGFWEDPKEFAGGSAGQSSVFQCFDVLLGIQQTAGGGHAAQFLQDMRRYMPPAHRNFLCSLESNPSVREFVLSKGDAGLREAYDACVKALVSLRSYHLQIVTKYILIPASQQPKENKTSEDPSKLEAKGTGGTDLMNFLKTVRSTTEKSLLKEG

Structure (SMILES) | IC50 [nM]
CC[C@H](CC(=O)O)c1ccc(N(CC(C)C)C2CCS(=O)(=O)CC2)c(Nc2ccc3c(c2)OC(F)(F)O3)c1 (single isomer, unassigned) [Example 215] | < 5
CC[C@@H](CC(=O)O)c1ccc(N(CC(C)C)C2CCS(=O)(=O)CC2)c(Nc2ccc3sc(C)nc3c2)c1 (single isomer, unassigned) [Example 219] | < 5
CCOc1ncc(Nc2cc([C@H](CC)CC(=O)O)ccc2N(CC2CC2)CC(C)(C)O)cn1 (single isomer, unassigned) [Example 274] | < 50
Cc1ccc(CC(=O)Nc2cc(C(CC(=O)O)C(C)C)ccc2N(C)C(C)(C)C)cc1 (single isomer, unassigned) [1007-1] | > 50
CCOc1ccc(Nc2cc([C@@H](CC)CC(=O)O)ccc2N(CC)C2CCOCC2)nc1 (single isomer, unassigned) [Example 482] | < 5
CC[C@@H](CC(=O)O)c1ccc(N(CC)C2CCOCC2)c(NC(=O)Nc2ccc(Cl)cc2)c1 (single isomer, unassigned) [Example 494] | > 50
CCC(CC(=O)O)c1ccc(N(CC(C)C)C2CCCCC2)c(Nc2ccc3c(c2)OCCO3)c1 (single isomer, unassigned) [Example 301, 3-(4-(cyclohexyl(isobutyl)amino)-3-((2,3-dihydrobenzo[b][1,4]dioxin-6-yl)amino)phenyl) pentanoic acid] | < 50
CCC(CC(=O)O)c1ccc(N(CC)C2CCCOC2)c(NC(=O)Nc2ccc(C)cc2)c1 (single isomer, unassigned) [Example 73 D3, 3-(4-(Ethyl(tetrahydro-2H-pyran-3-yl)amino)-3-(3-(p-tolyl)ureido)phenyl)pentanoic acid] | < 50
COCC(CC(=O)O)c1ccc(N(CC(C)C)C2CCCCC2)c(NC(=O)Nc2ccc(Cl)cc2F)c1 (single isomer, unassigned) [985-1] | < 5
CCN(c1ccc([C@@H](COC)CC(=O)O)cc1NC(=O)Nc1ccc(OC)cc1F)C1CCOCC1 (single isomer, unassigned) [Example 424] | > 50
CCN(c1ccc([C@@H](COC)CC(=O)O)cc1NC(=O)Nc1ccc(OC)nc1)C1CCOCC1 (single isomer, unassigned) [Example 426] | > 50
CCC(CC(=O)O)c1ccc(N(CC)C2CCOCC2)c(NC(=O)Nc2ccc(OC)cc2F)c1 (racemic) [Example 608, 3-(4-(Ethyl(tetrahydro-2H-pyran-4-yl)amino)-3-(3-(2-fluoro-4-methoxyphenyl)ureido)phenyl)pentanoic acid] | < 5
Cc1nc2ccc(Nc3cc(C(CC(=O)O)c4ccccc4)cc(F)c3N(CC(C)C)CC(C)C)cc2s1 (single isomer, unassigned) [Example 130, 3-(4-(Diisobutylamino)-3-fluoro-5-((2-methylbenzo[d]thiazol-6-yl)amino)phenyl)-3-phenylpropanoic acid] | > 50
CCc1ccc(Nc2cc([C@H](CC)CC(=O)O)ccc2N2CCOC[C@@H]2C(C)C)cc1 (single isomer, unassigned) [Example 91] | < 50
CCN(c1ccc(C(C)(C)CC(=O)O)cc1Nc1cnc(OCC2CC2)nc1)C1CCOCC1 [Example 163, 3-(3-((2-(cyclopropylmethoxy)pyrimidin-5-yl)amino)-4-(ethyl (tetrahydro-2H-pyran-4-yl)amino)phenyl)-3-methylbutanoic acid] | < 5
CCOc1ncc(Nc2cc([C@H](CC)CC(=O)O)ccc2N(CC)C2CCOCC2)cn1 (single isomer, unassigned) [Example 498] | < 5
CCN(c1ccc(C(C)CC(=O)O)cc1Nc1cnc(OC)nc1)C1CCOCC1 (single isomer, unassigned) [Example 633, 3-(4-(ethyl(tetrahydro-2H-pyran-4-yl)amino)-3-((2-methoxypyrimidin-5-yl)amino)phenyl)butanoic acid] | < 50

Now from value to compound:

IC50 [nM] | Structure (SMILES)
< 5 | CCC(CC(=O)O)c1ccc(N(CC(C)C)CC(C)C)c(NC(=O)Cc2ccc(C)cc2)c1 (single isomer, unassigned) [Example 1103 E1, 3-(4-(Diisobutylamino)-3-(2-(p-tolyl)acetamido)phenyl)pentanoic acid]
< 50 | C[C@@H]1CN(c2ccc(C(C)(C)CC(=O)O)cc2Nc2ccc(C#N)cc2)C[C@H](C)O1 [Example 731, 3-(3-((4-Cyanophenyl)amino)-4-((2S,6R)-2,6-dimethylmorpholino)phenyl)-3-methylbutanoic acid]
> 50 | CCCN(CC1CC1)c1ccc(C(CC)CC(=O)O)cc1Nc1ccc2nc(C)sc2c1 (single isomer, unassigned) [Example 661, 3-(4-((cyclopropylmethyl)(propyl)amino)-3-((2-methylbenzo[d]thiazol-6-yl)amino)phenyl) pentanoic acid]
< 50 | CCOc1ccc(NC(=O)Nc2cc(C(COC)CC(=O)O)cc(F)c2N(CC(C)C)CC(C)C)c(F)c1 (single isomer, unassigned) [Example 1178, 3-(4-(Diisobutylamino)-3-(3-(4-ethoxy-2-fluorophenyl)ureido)-5-fluorophenyl)-4-methoxybutanoic acid]
> 50 | CCC(CC(=O)O)c1ccc(N2CCC[C@H]2C(C)(C)O)c(Nc2ccc(OCC3CC3)cc2)c1 (single isomer, unassigned) [Example 818]
> 50 | CCOc1ccc(NC(=O)Nc2cc(C(COC)CC(=O)O)ccc2N(CC(C)C)C2CCOCC2)cc1 (single isomer, unassigned) [Example 1212, 3-(3-(3-(4-Ethoxyphenyl)ureido)-4-(isobutyl(tetrahydro-2H-pyran-4-yl)amino)phenyl)-4-methoxybutanoic acid]
< 5 | COCC(CC(=O)O)c1ccc(N(CC(C)C)C2CCCCC2)c(NC(=O)Cc2ccc(Cl)cc2F)c1 (single isomer, unassigned) [Example 1245, 3-(3-(2-(4-Chloro-2-fluorophenyl)acetamido)-4-(cyclohexyl(isobutyl)amino)phenyl)-4-methoxybutanoic acid]
< 5 | CCc1ccc(Nc2cc(C(CC)CC(=O)O)ccc2N2CCOC[C@H]2C(C)C)cc1 (single isomer, unassigned) [Example 902]
< 5 | COCC(CC(=O)O)c1ccc(N(CC2CC2)C2CCOCC2)c(Nc2ccc(C#N)c(C)c2)c1 (single isomer, unassigned) [Example 686, 3-(3-((4-cyano-3-methylphenyl)amino)-4-((cyclopropylmethyl) (tetrahydro-2H-pyran-4-yl)amino)phenyl)-4-methoxybutanoic acid]
> 50 | CCC(CC(=O)O)c1ccc(N2CCC[C@H]2C(C)(C)O)c(Nc2ccc3c(c2)OC(F)(F)O3)c1 (single isomer, unassigned) [Example 837]
< 5 | CCC(CC(=O)O)c1cc(NC(=O)Nc2ccc(C)cc2)c(N(CC(C)C)C2CCCCC2)cc1F (racemic) [Example 951, (+/−)-3-(4-(Cyclohexyl(isobutyl)amino)-2-fluoro-5-(3-(p-tolyl)ureido)phenyl)pentanoic acid]
< 5 | Cc1ccc(NC(=O)Nc2cc(C(CC(=O)O)C3CC3)ccc2N(CC(C)C)C2CCOCC2)cc1 (racemic) [Example 1202, (+/−)-3-Cyclopropyl-3-(4-(isobutyl(tetrahydro-2H-pyran-4-yl)amino)-3-(3-(p-tolyl)ureido)phenyl)propanoic acid]
> 50 | CCC(CC(=O)O)c1ccc(N2CCC[C@H]2C(C)(C)O)c(Nc2cnc(OC)nc2)c1 (single isomer, unassigned) [Example 824]
< 50 | COCC(CC(=O)O)c1cc(F)c(N(CC(C)C)CC(C)C)c(NC(=O)Nc2ccc(C)cc2)c1 (single isomer, unassigned) [Example 1194, 3-(4-(Diisobutylamino)-3-fluoro-5-(3-(p-tolyl)ureido)phenyl)-4-methoxybutanoic acid]
< 50 | C[C@@H]1CN(c2ccc(C(C)(C)CC(=O)O)cc2Nc2ccc(Cl)cc2)C[C@H](C)O1 [Example 733, 3-(3-((4-chlorophenyl)amino)-4-((2S,6R)-2,6-dimethylmorpholino)phenyl)-3-methylbutanoic acid]
< 50 | COCC(CC(=O)O)c1ccc(N(CC(C)C)C2CCCCC2)c(NC(=O)Cc2ccc(C)cc2)c1 (single isomer, unassigned) [Example 1237, 3-(4-(Cyclohexyl(isobutyl)amino)-3-(2-(p-tolyl)acetamido)phenyl)-4-methoxybutanoic acid]
< 50 | CCOc1ccc(NC(=O)Nc2cc(C(CC(=O)O)C3CC3)ccc2N(CC(C)C)C2CCOCC2)cc1 (single isomer, unassigned) [Example 1205 Enantiomer 1, 3-Cyclopropyl-3-(3-(3-(4-ethoxyphenyl)ureido)-4-(isobutyl(tetrahydro-2H-pyran-4-yl)amino)phenyl)propanoic acid]
< 5 | Cc1ccc(CC(=O)Nc2cc(C(CC(=O)O)C(C)C)ccc2N(CC(C)C)CC(C)C)cc1 (racemic) [Example 1010]
< 50 | COCC(CC(=O)O)c1ccc(N(CC(C)C)C2CCCCC2)c(NC(=O)Nc2ccc(OC(F)(F)F)cc2)c1 (single isomer, unassigned) [Example 1243, 3-(4-(Cyclohexyl(isobutyl)amino)-3-(3-(4-(trifluoromethoxy)phenyl)ureido)phenyl)-4-methoxybutanoic acid]
< 5 | CCC(CC(=O)O)c1cc(NC(=O)Nc2ccc(C)cc2F)c(N(CC(C)C)C2CCCCC2)cc1F (single isomer, unassigned) [Example 1120, 3-(4-(Cyclohexyl(isobutyl)amino)-2-fluoro-5-(3-(2-fluoro-4-methylphenyl)ureido)phenyl)pentanoic acid]
> 50 | CCOc1ccc(NC(=O)Nc2cc([C@H](CC)CC(=O)O)ccc2N2CCC[C@H]2C(C)(C)O)cc1 (single isomer, unassigned) [Example 810]

Reference: patent publication US9790169B2, “IDO inhibitors” (BRISTOL-MYERS SQUIBB COMPANY, priority 2015, dated 2017)
